Reference: the NIST ThermoML archive (doi:10.1016/j.jct.2008.04.004)
Numbers after ± are expanded uncertainties.

Columns and labels:
[1] = Crystal
[2] = molar enthalpy of vaporization or sublimation; conditions: 298.15 K, Crystal
[3] = stuart scientific smp2 calibrated apparatus

molar enthalpy ([2]; Unpublished results by the authors) | SMILES | Normal melting temperature ([1]; DTA) | molar enthalpy ([2]; Vacuum drop calorimetry) | Normal melting temperature [1, 3]
 | N#Cc1ccccc1C(=O)O [2-cyanobenzoic acid] | 232.6 ± 0.5 °C | 27.4 ± 0.717 kcal/mol | 
 | N#Cc1cccc(C(=O)O)c1 [3-cyanobenzoic acid] |  | 27.9 ± 0.717 kcal/mol | 223 ± 1 °C
27 ± 0.478 kcal/mol | N#Cc1ccc(C(=O)O)cc1 [4-cyanobenzoic acid] |  |  | 220 ± 1 °C
